# Assay results from PubChem BioAssay AID256 (DTP/NCI, 2004).
# Several values for one entry are separate records, joined by “and”; a condition that tells them apart may be missing. Equal values may be shown once. Toxic doses and inconclusive results are not listed.
# Tested on: CD2F1 mice, L1210 leukemia ip, survival T/C
# Test: NCI In Vivo Anticancer Drug Screen. Data for tumor model L1210 Leukemia (intraperitoneal) in CD2F1 (CDF1) mice
# Conditions: higher = longer survival
# In short: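 Antitumor effect is scored in animals hosting a serially transplanted tumor. Values compare compound-dosed animals against vehicle-only controls as a simple quotient.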
# [1] = endpoint: mean survival time, dose: 25.0 mg/kg/injection, schedule: Q04DX003 (ip), vehicle: saline with Tween-80
# [2] = endpoint: mean survival time, dose: 100.0 mg/kg/injection, schedule: Q04DX003 (ip), vehicle: saline with Tween-80
# [3] = endpoint: mean survival time, dose: 25.0 mg/kg/injection, schedule: Q01DX009 (ip), vehicle: saline with Tween-80
# [4] = endpoint: mean survival time, dose: 50.0 mg/kg/injection, schedule: Q01DX009 (ip), vehicle: saline with Tween-80
# [5] = endpoint: mean survival time, dose: 100.0 mg/kg/injection, schedule: Q01DX009 (ip), vehicle: saline with Tween-80
# [6] = endpoint: mean survival time, dose: 25.0 mg/kg/injection, schedule: Q04DX002 (ip), vehicle: saline with Tween-80
# [7] = endpoint: mean survival time, dose: 50.0 mg/kg/injection, schedule: Q04DX002 (ip), vehicle: saline with Tween-80
# [8] = endpoint: mean survival time, dose: 100.0 mg/kg/injection, schedule: Q01DX001 (ip), vehicle: saline
# [9] = endpoint: mean survival time, dose: 200.0 mg/kg/injection, schedule: Q04DX003 (ip), vehicle: saline with Tween-80
# [10] = endpoint: mean survival time, dose: 50.0 mg/kg/injection, schedule: Q01DX009 (ip), vehicle: other
# [11] = endpoint: mean survival time, dose: 100.0 mg/kg/injection, schedule: Q01DX009 (ip), vehicle: other
# [12] = endpoint: mean survival time, dose: 200.0 mg/kg/injection, schedule: Q01DX009 (ip), vehicle: other
# [13] = endpoint: mean survival time, dose: 75.0 mg/kg/injection, schedule: Q01DX001 (ip), vehicle: saline
# [14] = endpoint: mean survival time, dose: 150.0 mg/kg/injection, schedule: Q01DX001 (ip), vehicle: saline
smiles,measurement,setting,value
Cc1ccccc1NC(=O)/C=C\C(=O)O,T/C,"endpoint: mean survival time, dose: 20.0 mg/kg/injection, schedule: Q01DX009 (ip), vehicle: saline with Tween-80",105 % of control
same,T/C,"endpoint: mean survival time, dose: 20.0 mg/kg/injection, schedule: Q04DX003 (ip), vehicle: saline with Tween-80",102 % of control
same,T/C,"endpoint: mean survival time, dose: 40.0 mg/kg/injection, schedule: Q01DX009 (ip), vehicle: saline with Tween-80",104 % of control
same,T/C,"endpoint: mean survival time, dose: 40.0 mg/kg/injection, schedule: Q04DX003 (ip), vehicle: saline with Tween-80",97 % of control
same,T/C,"endpoint: mean survival time, dose: 80.0 mg/kg/injection, schedule: Q01DX009 (ip), vehicle: saline with Tween-80",102 % of control
same,T/C,"endpoint: mean survival time, dose: 80.0 mg/kg/injection, schedule: Q04DX003 (ip), vehicle: saline with Tween-80",97 % of control
CCN(CC)C1=CC(=O)c2ccccc2C1=O,T/C,[1],102 % of control
same,T/C,"endpoint: mean survival time, dose: 50.0 mg/kg/injection, schedule: Q04DX003 (ip), vehicle: saline with Tween-80",96 % of control
same,T/C,[2],103 % of control
CN=S(=O)(OCCCCCOS(=O)(=NC)c1ccccc1)c1ccccc1 (stereo unspecified),T/C,"endpoint: mean survival time, dose: 12.5 mg/kg/injection, schedule: Q01DX009 (ip), vehicle: saline with Tween-80",103 % of control
same,T/C,[3],106 % of control
same,T/C,[4],103 % of control
same,T/C,[5],106 % of control
N#CC(=N)N1CCN(C(=N)C#N)CC1,T/C,[6],93 % of control
same,T/C,[7],86 % of control
same,T/C,[8],97 % of control
O=c1oc(-c2ccc3c(c2)OCO3)nc2ccccc12,T/C,[2],91 % of control
same,T/C,[9],87 % of control
CN(C)CCNCc1cn(C2CC(O)C(CO)O2)c(=O)[nH]c1=O (stereo unspecified),T/C,"endpoint: mean survival time, dose: 12.5 mg/kg/injection, schedule: Q01DX005 (ip), vehicle: water",105 % of control
same,T/C,"endpoint: mean survival time, dose: 25.0 mg/kg/injection, schedule: Q01DX005 (ip), vehicle: water",103 % of control
same,T/C,"endpoint: mean survival time, dose: 50.0 mg/kg/injection, schedule: Q01DX005 (ip), vehicle: water",106 % of control
same,T/C,"endpoint: mean survival time, dose: 100.0 mg/kg/injection, schedule: Q01DX005 (ip), vehicle: water",103 % of control
same,T/C,"endpoint: mean survival time, dose: 200.0 mg/kg/injection, schedule: Q01DX005 (ip), vehicle: water",114 % of control
Cc1ccc(-c2csc(/N=C/c3ccccc3O)n2)cc1.Cc1ccc(-c2csc(/N=C/c3ccccc3O)n2)cc1.[Cu],T/C,"endpoint: mean survival time, dose: 25.0 mg/kg/injection, schedule: Q01DX001 (ip), vehicle: saline",91 % of control
same,T/C,"endpoint: mean survival time, dose: 50.0 mg/kg/injection, schedule: Q01DX001 (ip), vehicle: saline",96 % of control
same,T/C,"endpoint: mean survival time, dose: 100.0 mg/kg/injection, schedule: Q01DX001 (ip), vehicle: saline with Tween-80",86 % of control
same,T/C,[8],87 % of control
same,T/C,"endpoint: mean survival time, dose: 400.0 mg/kg/injection, schedule: Q01DX001 (ip), vehicle: saline with Tween-80",93 % of control
CC(=O)Oc1cccc(C(C)=O)c1,T/C,[2],102 % of control
same,T/C,[9],100 % of control
same,T/C,"endpoint: mean survival time, dose: 400.0 mg/kg/injection, schedule: Q04DX003 (ip), vehicle: saline with Tween-80",104 % of control
CC(=O)NNC(=O)c1ccccc1,T/C,[10],95 % of control and 105 % of control
same,T/C,[11],97 % of control and 108 % of control
same,T/C,[12],93 % of control and 97 % of control
same,T/C,"endpoint: mean survival time, dose: 300.0 mg/kg/injection, schedule: Q01DX009 (ip), vehicle: other",90 % of control
COc1cc(NCCCCCCCNC(C)C)c2nccc(C)c2c1,T/C,"endpoint: median survival time, dose: 3.12 mg/kg/injection, schedule: Q01DX009 (ip), vehicle: saline",98 % of control
same,T/C,"endpoint: median survival time, dose: 6.25 mg/kg/injection, schedule: Q01DX009 (ip), vehicle: saline",102 % of control
same,T/C,"endpoint: median survival time, dose: 12.5 mg/kg/injection, schedule: Q01DX009 (ip), vehicle: saline",97 % of control
CCOC(=O)/C(C#N)=C\c1cccs1,T/C,"endpoint: mean survival time, dose: 25.0 mg/kg/injection, schedule: Q04DX003 (ip), vehicle: Klucel (hydroxypropylcellulose) (HPC)",96 % of control
same,T/C,"endpoint: mean survival time, dose: 50.0 mg/kg/injection, schedule: Q04DX003 (ip), vehicle: Klucel (hydroxypropylcellulose) (HPC)",96 % of control
same,T/C,"endpoint: mean survival time, dose: 100.0 mg/kg/injection, schedule: Q04DX003 (ip), vehicle: Klucel (hydroxypropylcellulose) (HPC)",107 % of control
c1ccc2c(c1)Cc1cc3ccccc3nc1-2,T/C,[13],102 % of control
same,T/C,[14],97 % of control
same,T/C,"endpoint: mean survival time, dose: 300.0 mg/kg/injection, schedule: Q01DX001 (ip), vehicle: saline",101 % of control
CCCCCCCCCNP(=O)(OCc1ccccc1)N(CCCl)CCCl (stereo unspecified),T/C,"endpoint: mean survival time, dose: 25.0 mg/kg/injection, schedule: Q01DX001 (ip), vehicle: DMSO",94 % of control
same,T/C,"endpoint: mean survival time, dose: 50.0 mg/kg/injection, schedule: Q01DX001 (ip), vehicle: DMSO",94 % of control
same,T/C,"endpoint: mean survival time, dose: 100.0 mg/kg/injection, schedule: Q01DX001 (ip), vehicle: DMSO",95 % of control
same,T/C,"endpoint: mean survival time, dose: 200.0 mg/kg/injection, schedule: Q01DX001 (ip), vehicle: DMSO",94 % of control
same,T/C,"endpoint: mean survival time, dose: 400.0 mg/kg/injection, schedule: Q01DX001 (ip), vehicle: DMSO",91 % of control
NCCc1cc(O)c(O)cc1O,T/C,"endpoint: mean survival time, dose: 50.0 mg/kg/injection, schedule: Q01DX009 (ip), vehicle: saline",93 % of control
same,T/C,"endpoint: mean survival time, dose: 100.0 mg/kg/injection, schedule: Q01DX009 (ip), vehicle: saline",104 % of control
C=CCOc1c(C)cc(C(C)(C)c2cc(C)c(OCC=C)c(C)c2)cc1C,T/C,"endpoint: mean survival time, dose: 25.0 mg/kg/injection, schedule: Q01DX001 (ip), vehicle: other",104 % of control
same,T/C,"endpoint: mean survival time, dose: 50.0 mg/kg/injection, schedule: Q01DX001 (ip), vehicle: other",103 % of control
same,T/C,"endpoint: mean survival time, dose: 100.0 mg/kg/injection, schedule: Q01DX001 (ip), vehicle: other",94 % of control and 97 % of control
same,T/C,"endpoint: mean survival time, dose: 400.0 mg/kg/injection, schedule: Q01DX001 (ip), vehicle: other",96 % of control
O=C(Oc1ccc(O)cc1)N(c1cccc2ccccc12)c1cccc2ccccc12,T/C,[6],100 % of control
same,T/C,[7],95 % of control
same,T/C,"endpoint: mean survival time, dose: 100.0 mg/kg/injection, schedule: Q04DX002 (ip), vehicle: saline with Tween-80",91 % of control and 98 % of control
same,T/C,"endpoint: mean survival time, dose: 400.0 mg/kg/injection, schedule: Q04DX002 (ip), vehicle: saline with Tween-80",95 % of control
CCOC(=O)C1CC=CCC1C(=O)OCC (stereo unspecified),T/C,"endpoint: mean survival time, dose: 35.0 mg/kg/injection, schedule: Q04DX003 (ip), vehicle: other",111 % of control
same,T/C,"endpoint: mean survival time, dose: 65.0 mg/kg/injection, schedule: Q04DX003 (ip), vehicle: other",94 % of control
same,T/C,"endpoint: mean survival time, dose: 100.0 mg/kg/injection, schedule: Q04DX003 (ip), vehicle: other",103 % of control
same,T/C,"endpoint: mean survival time, dose: 150.0 mg/kg/injection, schedule: Q04DX003 (ip), vehicle: other",100 % of control
CCCCCNC(=O)CCC(NC(=O)c1ccc(N(C)Cc2cnc3nc(N)nc(N)c3n2)cc1)C(=O)O (stereo unspecified),T/C,"endpoint: mean survival time, dose: 1.0 mg/kg/injection, schedule: Q01DX009 (ip), vehicle: sodium bicarbonate",107 % of control
same,T/C,"endpoint: mean survival time, dose: 10.0 mg/kg/injection, schedule: Q01DX009 (ip), vehicle: sodium bicarbonate",118 % of control
same,T/C,"endpoint: mean survival time, dose: 50.0 mg/kg/injection, schedule: Q01DX009 (ip), vehicle: sodium bicarbonate",122 % of control
same,T/C,"endpoint: mean survival time, dose: 200.0 mg/kg/injection, schedule: Q01DX009 (ip), vehicle: sodium bicarbonate",152 % of control
same,T/C,"endpoint: mean survival time, dose: 400.0 mg/kg/injection, schedule: Q01DX009 (ip), vehicle: sodium bicarbonate",164 % of control
CCOc1c(Cl)cc(Cl)cc1C(c1ccc(Cl)cc1S(=O)(=O)O)c1cc(Cl)cc(Cl)c1OCC,T/C,[3],98 % of control
same,T/C,[4],89 % of control
same,T/C,[5],86 % of control
COC(=O)C1CCN1C(C)C (stereo unspecified),T/C,"endpoint: mean survival time, dose: 12.5 mg/kg/injection, schedule: Q01DX009 (ip), vehicle: other",106 % of control
same,T/C,"endpoint: mean survival time, dose: 25.0 mg/kg/injection, schedule: Q01DX009 (ip), vehicle: other",106 % of control
same,T/C,[10],96 % of control
same,T/C,[11],98 % of control
same,T/C,[12],98 % of control
CC(=O)C(CCN(C)C)(c1ccccc1)c1ccccc1,T/C,[13],102 % of control
same,T/C,[14],91 % of control
COc1cccc(CCNC(=O)CCN2C(=O)CCC2=O)c1,T/C,[5],98 % of control
same,T/C,"endpoint: mean survival time, dose: 100.0 mg/kg/injection, schedule: Q04DX003 (ip), vehicle: saline sonified",101 % of control
same,T/C,"endpoint: mean survival time, dose: 200.0 mg/kg/injection, schedule: Q01DX009 (ip), vehicle: saline with Tween-80",93 % of control
same,T/C,"endpoint: mean survival time, dose: 200.0 mg/kg/injection, schedule: Q04DX003 (ip), vehicle: saline sonified",98 % of control
same,T/C,"endpoint: mean survival time, dose: 400.0 mg/kg/injection, schedule: Q01DX009 (ip), vehicle: saline with Tween-80",100 % of control
same,T/C,"endpoint: mean survival time, dose: 400.0 mg/kg/injection, schedule: Q04DX003 (ip), vehicle: saline sonified",104 % of control
OC(c1ccccc1)c1cc(-c2ccccc2)c(-c2ccccc2)cc1C(O)c1ccccc1 (stereo unspecified),T/C,"endpoint: mean survival time, dose: 12.5 mg/kg/injection, schedule: Q04DX003 (ip), vehicle: saline with Tween-80",102 % of control
same,T/C,[1],114 % of control
